Experimental data as given in ChEMBL document CHEMBL1201862, “PubChem BioAssay data set” (2004).
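Test compounds were applied to cells in 96-well plates for 48 hours at 5 doses. Here, GI50 denotes the concentration required for 50% inhibition of growth.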 Activity calls are given as the source filed them. Rule as the data show it: active = GI50 up to about 1.1 µM and inactive = higher.

Legend:
Assay in all cases: NCI anticancer screen, dose series, 48 h
OVCAR-5 = test system: OVCAR-5
M19-MEL = test system: M19-MEL
UACC-257 = test system: UACC-257
SW-620 = test system: SW-620
SR = test system: SR
COLO 205 = test system: COLO 205
HCT-116 = test system: HCT-116
U-251 = test system: U-251
HCC 2998 = test system: HCC 2998
TK-10 = test system: TK-10
HOP-62 = test system: HOP-62
OVCAR-4 = test system: OVCAR-4
SF-295 = test system: SF-295
786-0 = test system: 786-0
SK-OV-3 = test system: SK-OV-3
OVCAR-3 = test system: OVCAR-3
NCI-H460 = test system: NCI-H460
NCI-H226 = test system: NCI-H226

Measured: GI50

O=C(c1ccc2c3c(ccc(C(=O)C(F)(F)F)c13)CC2)C(F)(F)F
inactive: OVCAR-5 > 100 µM | M19-MEL 35.5 µM | UACC-257 42.3 µM | SW-620 > 100 µM | SR 60.1 µM | COLO 205 21.5 µM | HCT-116 69.2 µM | U-251 63.2 µM | HCC 2998 > 100 µM | TK-10 53 µM | HOP-62 72.1 µM | OVCAR-4 35.1 µM | SF-295 44.6 µM | 786-0 57.5 µM | SK-OV-3 > 100 µM | OVCAR-3 69.8 µM | NCI-H460 69.8 µM | NCI-H226 > 100 µM

CS(=O)(=O)CSCSSCS(C)(=O)=O
inactive: OVCAR-5 43.2 µM | M19-MEL > 57.9 µM | UACC-257 28.4 µM | SW-620 16.8 µM | SR 16.5 µM | COLO 205 18.2 µM | HCT-116 34.4 µM | U-251 37.1 µM | HCC 2998 > 100 µM | TK-10 > 90.6 µM | HOP-62 51.8 µM | OVCAR-4 33 µM | SF-295 18.2 µM | 786-0 20.1 µM | SK-OV-3 > 100 µM | OVCAR-3 47.1 µM | NCI-H460 26.2 µM | NCI-H226 > 100 µM

O=C(CCc1nnc2s/c(=C\c3ccc([N+](=O)[O-])cc3)c(=O)n12)Nc1ccc(Cl)c(Cl)c1
inactive: OVCAR-5 36.2 µM | M19-MEL 31.6 µM | UACC-257 85.1 µM | SW-620 25.2 µM | COLO 205 28.1 µM | HCT-116 32.1 µM | U-251 16.6 µM | HCC 2998 22.3 µM | TK-10 34 µM | HOP-62 20.3 µM | OVCAR-4 18.6 µM | SF-295 25.1 µM | 786-0 17.9 µM | SK-OV-3 38.5 µM | OVCAR-3 13.1 µM | NCI-H460 46.1 µM | NCI-H226 14.4 µM

COc1ccc(CNc2nc3ccccc3nc2-c2cccs2)cc1OC
inactive: OVCAR-5 > 100 µM | M19-MEL 33.1 µM | UACC-257 23.3 µM | SW-620 93.3 µM | SR 15.5 µM | COLO 205 9.98 µM | HCT-116 33.5 µM | U-251 75.5 µM | HCC 2998 30.8 µM | TK-10 74 µM | HOP-62 > 100 µM | SF-295 42.4 µM | 786-0 33.5 µM | OVCAR-3 51.3 µM | NCI-H460 20.8 µM | NCI-H226 68.5 µM

Cc1ccccc1NC(=O)C(=O)C(c1cnc2ccc([N+](=O)[O-])cc2n1)[N+](=O)[O-] (centres undefined)
inactive: OVCAR-5 > 100 µM | M19-MEL 83 µM | UACC-257 > 100 µM | SW-620 > 100 µM | SR > 100 µM | COLO 205 > 100 µM | HCT-116 > 100 µM | U-251 > 100 µM | HCC 2998 > 100 µM | TK-10 > 100 µM | HOP-62 > 100 µM | OVCAR-4 > 100 µM | SF-295 > 100 µM | 786-0 > 100 µM | SK-OV-3 > 100 µM | NCI-H460 > 100 µM | NCI-H226 > 100 µM

N#C/C1=C(\N)CCSSSC1
inactive: OVCAR-5 53.1 µM | M19-MEL 32.1 µM | UACC-257 35.8 µM | SW-620 44.6 µM | SR 33.7 µM | COLO 205 30.7 µM | HCT-116 40.2 µM | U-251 31.4 µM | HCC 2998 54.8 µM | TK-10 > 100 µM | HOP-62 29.2 µM | OVCAR-4 33.9 µM | SF-295 19.6 µM | 786-0 35.8 µM | SK-OV-3 52.5 µM | OVCAR-3 46.3 µM | NCI-H460 23.6 µM | NCI-H226 33.6 µM

CC(C)(CN1CCCCC1)C(=O)/C=C/c1ccccc1
inactive: OVCAR-5 19.9 µM | M19-MEL 18.9 µM | UACC-257 14.5 µM | SW-620 11.6 µM | COLO 205 16.4 µM | HCT-116 15.3 µM | U-251 21.5 µM | HCC 2998 14.7 µM | TK-10 16.3 µM | HOP-62 24.7 µM | OVCAR-4 26 µM | SF-295 15.5 µM | 786-0 13.6 µM | SK-OV-3 21.3 µM | OVCAR-3 6.07 µM | NCI-H460 22.4 µM | NCI-H226 29 µM

CCc1cc(Cc2cc(CC)c(NC(=O)C3=CC(=O)CC(c4ccc(OC)cc4)O3)c(CC)c2Cl)c(Cl)c(CC)c1NC(=O)C1=CC(=O)CC(c2ccc(OC)cc2)O1 (centres undefined)
inactive: OVCAR-5 20.7 µM | M19-MEL 17.3 µM | UACC-257 16 µM | SW-620 5.9 µM | SR 22.5 µM | COLO 205 17.8 µM | HCT-116 16.7 µM | U-251 12.9 µM | HCC 2998 16.7 µM | TK-10 19.7 µM | HOP-62 22.2 µM | OVCAR-4 25.2 µM | SF-295 19.8 µM | 786-0 18.4 µM | SK-OV-3 17 µM | OVCAR-3 19.1 µM | NCI-H460 17.7 µM | NCI-H226 24.8 µM
